“Also recorded” adds a separate entry of the source.
Tests used:
yeast Sir2 (ySir2) = target: T1, yeast Sir2 (ySir2) (Saccharomyces cerevisiae, UniProt P06700); assay: Yeast Sir2 deacetylase inhibition, HDAC fluorescent activity assay (BIOMOL AK-500); type: biochemical; conditions: for inhibition at 100 µM: 100 μM inhibitor, read-out: % inhibtn (100 μM) ySir2; for inhibition at 100 µM / IC50: 200 μM NAD+, 30° C., 60 min; for ySir2 inhibitory activity, in words: compared with sirtinol 1
T1 construct: His; made in house
T1 sequence (P06700 whole entry): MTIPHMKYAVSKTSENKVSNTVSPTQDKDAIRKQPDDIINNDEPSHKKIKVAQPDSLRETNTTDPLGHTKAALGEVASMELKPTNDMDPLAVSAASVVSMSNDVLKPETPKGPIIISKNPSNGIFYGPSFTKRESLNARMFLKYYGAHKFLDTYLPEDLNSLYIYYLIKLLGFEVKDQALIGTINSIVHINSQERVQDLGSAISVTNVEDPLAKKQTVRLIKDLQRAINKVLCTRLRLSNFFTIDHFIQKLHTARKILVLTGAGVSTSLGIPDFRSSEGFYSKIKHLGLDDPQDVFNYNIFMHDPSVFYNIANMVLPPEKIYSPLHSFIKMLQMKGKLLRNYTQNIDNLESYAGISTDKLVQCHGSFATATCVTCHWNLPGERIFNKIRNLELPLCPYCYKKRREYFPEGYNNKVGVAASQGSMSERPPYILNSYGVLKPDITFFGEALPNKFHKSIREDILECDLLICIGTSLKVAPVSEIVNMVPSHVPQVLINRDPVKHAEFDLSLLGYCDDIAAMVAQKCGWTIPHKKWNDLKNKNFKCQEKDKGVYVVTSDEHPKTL
Protocol: (§1) Recombinant His-tagged yeast ySir2 and His-tagged hSIRT1 were purified and assayed for deacetylase activity using the HDAC fluorescent activity assay/drug discovery kit (AK-500, BIOMOL Research Laboratories).^55 This assay system allows detection of a fluorescent signal upon deacetylation of a histone substrate when treated with developer. Fluorescence was measured on a fluorometric reader (Wallac Victor III fluorescence plate reader Perkin Elmer) with excitation set at 360 nm and emission detection set at 450 nm. Reactions consisted of either 3 μg of ySir2 or 1 μg of SIRT1, incubated with 250 μM acetylated histone substrate, 1 mM dithiothreitol, and a range of inhibitor concentrations as described. Reactions with the yeast and human proteins were carried out at 30 and 37° C., respectively, for 60 min. Assays were performed in the presence of 200 μM NAD^+ and each of the inhibitors at 0, 20, 75, 100, 150, or 300 μM concentrations.
as §1, with “In Vitro Yeast Sir2 Enzyme Inhibition. Recombinant” for “Recombinant”, “Sir2p was” for “ySir2 and His-tagged hSIRT1 were”, “Laboratories).^42” for “Laboratories).^55”, “of” for “of either”, “ySir2” for “ySir2 or 1 μg of SIRT1,”

human SIRT1 (hSIRT1) = target: T2, human SIRT1 (hSIRT1) (Homo sapiens, UniProt Q96EB6); assay: Human SIRT1 deacetylase inhibition, HDAC fluorescent activity assay (BIOMOL AK-500); type: biochemical; conditions: for inhibition at 100 µM: 100 μM inhibitor, read-out: % inhibtn (100 μM) hSIRT1; for inhibition at 100 µM / IC50: 200 μM NAD+, 37° C., 60 min; for fold more potent than sirtinol (1) in inhibiting hSIRT1: relative to sirtinol 1
T2 construct: His; made in house
T2 sequence (Q96EB6 1-747): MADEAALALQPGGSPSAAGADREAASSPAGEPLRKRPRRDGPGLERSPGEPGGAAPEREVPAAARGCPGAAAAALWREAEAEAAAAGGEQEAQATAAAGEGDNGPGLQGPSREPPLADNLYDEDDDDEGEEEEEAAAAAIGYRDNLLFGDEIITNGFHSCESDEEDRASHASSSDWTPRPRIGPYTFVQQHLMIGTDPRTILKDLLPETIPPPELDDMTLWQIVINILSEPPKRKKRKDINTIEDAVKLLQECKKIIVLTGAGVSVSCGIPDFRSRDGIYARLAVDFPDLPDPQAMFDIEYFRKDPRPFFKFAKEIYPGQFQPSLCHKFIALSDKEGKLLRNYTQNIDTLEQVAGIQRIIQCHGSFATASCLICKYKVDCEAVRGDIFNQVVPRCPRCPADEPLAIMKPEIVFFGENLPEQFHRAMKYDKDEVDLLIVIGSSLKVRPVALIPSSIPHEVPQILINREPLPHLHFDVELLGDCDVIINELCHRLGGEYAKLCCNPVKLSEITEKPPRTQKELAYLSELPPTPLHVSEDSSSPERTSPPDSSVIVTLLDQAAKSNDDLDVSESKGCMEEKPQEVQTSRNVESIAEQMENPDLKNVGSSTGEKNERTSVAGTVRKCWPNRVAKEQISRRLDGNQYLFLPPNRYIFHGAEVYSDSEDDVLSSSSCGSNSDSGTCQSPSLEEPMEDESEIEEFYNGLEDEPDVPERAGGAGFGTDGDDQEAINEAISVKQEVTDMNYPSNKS
Protocol: as §1

SIRT2 isoform 1 = target: T3, SIRT2 isoform 1 (Homo sapiens, UniProt Q8IXJ6); assay: SIRT2 deacetylase inhibition, HDAC fluorescent activity assay (BIOMOL AK-500); type: biochemical; conditions: for inhibition at 100 µM: read-out: SIRT2 % inhibition at 100 μM, 100 μM compound; for IC50: dose response curve; for fold more potent than 1 in inhibiting SIRT2: relative to sirtinol 1
T3 construct: His; made in house
T3 sequence (Q8IXJ6 1-389): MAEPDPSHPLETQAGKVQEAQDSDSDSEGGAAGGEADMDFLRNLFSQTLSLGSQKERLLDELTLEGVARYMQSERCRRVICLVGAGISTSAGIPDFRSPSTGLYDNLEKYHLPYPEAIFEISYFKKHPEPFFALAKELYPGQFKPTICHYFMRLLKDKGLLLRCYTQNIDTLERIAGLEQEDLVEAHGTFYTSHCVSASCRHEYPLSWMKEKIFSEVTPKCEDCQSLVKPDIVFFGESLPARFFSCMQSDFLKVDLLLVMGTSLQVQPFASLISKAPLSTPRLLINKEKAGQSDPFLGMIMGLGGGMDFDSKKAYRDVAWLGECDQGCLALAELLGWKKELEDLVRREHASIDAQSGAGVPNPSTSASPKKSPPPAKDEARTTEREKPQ
Protocol: as §1
Recombinant His-tagged SIRT2 isoform 1 was purified and assayed for deacetylase activity using the HDAC fluorescent activity assay/drug discovery kit (AK-500, BIOMOL Research Laboratories) as described above. […] A dose response curve for determining the IC50 was also done.

[1] = test system: Sir2-mediated telomeric URA3 gene silencing; assay: Telomeric silencing assay (phenotypic screening, URA3 reporter, 5-FOA); type: cell-based, yeast; conditions: relative to sirtinol 1, plates with 5-FOA, densitometric scanning at 16.7 μM
Protocol: Wildtype (AYH2.45)^50 and sir2Δ (STY30)^50 strains were grown to exponential phase (0.5 OD/mL) in YPD medium and cells were spotted in 10-fold dilutions on SC medium containing 1 mg/mL 5-fluoroorotic acid (5-FOA).^51 When appropriate, cells were grown on plates containing 0.18% DMSO and the specified concentration of Sir2 inhibitor (5.6 and 16.7 μM). Cell growth was evaluated after 3-4 d at 30° C.
The yeast strain contained a URA3 reporter gene integrated into the sub-telomeric region of chromosome VII-L where it is silenced by Sir2.^50 In the presence of 5-fluoroorotic acid (5-FOA), loss of transcriptional silencing in this strain and the corresponding increase in URA3 expression is lethal (FIG. 2).^51
A semi-quantitative assay of the spots on the plates treated with 5-FOA and the Sir2 inhibitors at 16.7 μM concentration was performed by densitometric scanning of the plates.

SMILES | inhibition at 100 µM (yeast Sir2 (ySir2)) | ySir2 inhibitory activity, in words (yeast Sir2 (ySir2)) | inhibition at 100 µM (human SIRT1 (hSIRT1)) | melting point | inhibition at 100 µM (SIRT2 isoform 1) | fold less potent than sirtinol (1) in inhibiting ySir2 (yeast Sir2 (ySir2); relative to sirtinol 1) | also measured
NC(=O)c1ccccc1/N=C/c1c(O)ccc2ccccc12 [Compound 5] | 0 to 5% | totally inactive; also recorded: total loss of Sir2 inhibitory activity | 0 to 5% | 238 to 240 °C | – | – | hSIRT1 inhibitory activity, in words (human SIRT1 (hSIRT1)): totally inactive
CC(NC(=O)c1ccccc1/N=C/c1c(O)ccc2ccccc12)c1ccccc1 (racemic) [Compound 1, sirtinol, reference compound] | 65.6% | – | 44.5% | – | 71% | – | –
C[C@@H](NC(=O)c1ccccc1/N=C/c1c(O)ccc2ccccc12)c1ccccc1 [Compound 9, (R)-sirtinol] | 55.5% | IC50 values similar to that of sirtinol 1 | 61.8% | – | 72.2% | – | –
CC(NC(=O)c1ccc(/N=C/c2c(O)ccc3ccccc23)cc1)c1ccccc1 (stereo not shown) [Compound 8, 4-[(2-hydroxy-1-naphthalenylmethylene)amino]-N-(1-phenylethyl)benzamide] | 59.8% | IC50 values similar to that of 1; also recorded: IC50 values similar to those of 1 | 82.6% | – | 80.2% | – | IC50 (yeast Sir2 (ySir2)): 33 ± 1 µM; fold more potent than sirtinol (1) in inhibiting ySir2 (yeast Sir2 (ySir2); relative to sirtinol 1): 1.5 fold; IC50 (human SIRT1 (hSIRT1)): 13 µM; fold more potent than sirtinol (1) in inhibiting hSIRT1 (human SIRT1 (hSIRT1)): 10 fold; fold more potent than sirtinol (1) in inhibiting hSIRT1 (human SIRT1 (hSIRT1); listed as para-sirtinol): 8 fold; SIRT2 inhibitory potency, in words (SIRT2 isoform 1; among compounds 1, 7-10): most potent; IC50 (SIRT2 isoform 1): 25.9 µM; fold more potent than 1 in inhibiting SIRT2 (SIRT2 isoform 1): 2.2 fold; Sir2 inhibitory potency in phenotypic screening, in words ([1]; listed as para-sirtinol): more potent Sir2 inhibitory activity than sirtinol
CCOC(=O)c1ccccc1/N=C/c1c(O)ccc2ccccc12 [Compound 3] | 20% | – | 9% | – | – | 3 fold | –
CC(NC(=O)c1cccc(/N=C/c2c(O)ccc3ccccc23)c1)c1ccccc1 (stereo not shown) [Compound 7, 3-[(2-hydroxy-1-naphthalenylmethylene)amino]-N-(1-phenylethyl)benzamide] | 53.9% | IC50 values similar to that of 1; also recorded: IC50 values similar to those of 1 | 63% | – | 79.2% | 1.5 fold | IC50 (yeast Sir2 (ySir2)): 72 ± 3 µM; IC50 (human SIRT1 (hSIRT1)): 59 ± 2 µM; fold more potent than sirtinol (1) in inhibiting hSIRT1 (human SIRT1 (hSIRT1)): 2.2 fold; fold more potent than sirtinol (1) in inhibiting hSIRT1 (human SIRT1 (hSIRT1); listed as meta-sirtinol): 2 fold; IC50 (SIRT2 isoform 1): 35.7 µM; fold more potent than 1 in inhibiting SIRT2 (SIRT2 isoform 1): 1.6 fold; Sir2 inhibitory potency in phenotypic screening, in words [1]: more potent inhibitors than 1; also recorded: more potent than sirtinol; also recorded: same potent Sir2 inhibitory as 1; Sir2 inhibitory potency in phenotypic screening, in words ([1]; listed as meta-sirtinol): more potent Sir2 inhibitory activity than sirtinol
C[C@H](NC(=O)c1ccccc1/N=C/c1c(O)ccc2ccccc12)c1ccccc1 [Compound 10, (S)-2-[(2-hydroxy-1-naphthalenylmethylene)amino]-N-(1-phenylethyl)benzamide] | 57% | IC50 values similar to that of sirtinol 1 | 60.2% | – | 73.5% | – | –
N#Cc1ccccc1/N=C/c1c(O)ccc2ccccc12 [Compound 6] | 15% | – | 20% | 139 to 141 °C | – | 4 fold | –
CC(NC(=O)c1ccccc1/N=C/c1cccc2ccccc12)c1ccccc1 (stereo not shown) [Compound 2, 2-[(1-naphthalenylmethylene)amino]-N-(1-phenylethyl)benzamide] | 10% | – | 33% | 101 to 103 °C | – | – | –
O=C(O)c1ccccc1/N=C/c1c(O)ccc2ccccc12 [Compound 4] | 5% | – | 26% | 180 to 182 °C | – | – | –
